Reference: US10370647B2 (priority 2015, dated 2019)

Legend:
[1] = test system: KFtx series; experiment: Paclitaxel resistance properties of the KFtx series (surviving cells, Cell Titer-Glo); assay type: cell-based; conditions: Low and Empty Low (low UCA1 expression); PTx 0 to 500 nM, 48 hours
Description: Paclitaxel resistance properties of the KFtx series comprising the cell line stably expressing UCA1 were compared. The KFtx series were seeded at a cell density of 6×10^3/well on a 96-well plate, and after the cells had been cultured at 37° C. for 12 hours, during which the cells were considered to adhere to the plate, the medium was exchanged with PTx-containing RPMI. The concentrations of PTx were set to be 0, 2, 5, 20, 50, 100, 200, and 500 nM. The cells were further cultured at 37° C. for 48 hours, and the number of surviving cells was then quantified using Cell Titer-Glo (Promega) and was then compared.

[2] = test system: KFtx cells; assay type: in vivo, BALB/cAJcl-nu/nu mice; conditions: KFTx cell-derived tumors; 7 days after Paclitaxel 1 mg/ml/mouse
[3] = test system: Low cells; assay type: in vivo, BALB/cAJcl-nu/nu mice; conditions: KF cell-derived tumors (Low group); 7 days after Paclitaxel 1 mg/ml/mouse

Structure (SMILES): CC(=O)O[C@H]1C(=O)[C@@]2(C)[C@H]([C@H](OC(=O)c3ccccc3)[C@]3(O)C[C@H](OC(=O)[C@H](O)[C@@H](NC(=O)c4ccccc4)c4ccccc4)C(C)=C1C3(C)C)[C@]1(OC(C)=O)CO[C@@H]1C[C@@H]2O [PTx, Paclitaxel]
- number of surviving cells [1]: significantly decreased
- tumors after administration of PTx (Rluc imaging) [2]: remained
- tumors disappeared (Rluc imaging) [3]: ≥ 95%
